Like-named read-outs stand apart in the source and are kept apart here.
What was measured:
A549 cells = assay: Cytotoxicity against A549 cells, Alamar Blue; format: cell-based; details: Supplementary Table 1, compound 0.5 mM, percentage of controls (n=1); for viability at 500 µM: Homo sapiens, A549, 65 h
How it was run: (§1)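 Seed HeLa/A549 at 2 × 10^4 cells/well in DMEM/10% FCS/2 mM L-Gln; treat ~65 h; add Alamar Blue, 5 h more.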

HeLa cells = assay: cells; details: for viability at 500 µM: Homo sapiens, HeLa, 65 h; for HeLa Cells Alamar Blue: Supplementary Table 1
How it was run: as §1

TbINO1 = target: T1, TbINO1 (Trypanosoma brucei brucei, UniProt Q5QQ46); assay: biochemical; format: binding
T1 sequence (Q5QQ46 1-528): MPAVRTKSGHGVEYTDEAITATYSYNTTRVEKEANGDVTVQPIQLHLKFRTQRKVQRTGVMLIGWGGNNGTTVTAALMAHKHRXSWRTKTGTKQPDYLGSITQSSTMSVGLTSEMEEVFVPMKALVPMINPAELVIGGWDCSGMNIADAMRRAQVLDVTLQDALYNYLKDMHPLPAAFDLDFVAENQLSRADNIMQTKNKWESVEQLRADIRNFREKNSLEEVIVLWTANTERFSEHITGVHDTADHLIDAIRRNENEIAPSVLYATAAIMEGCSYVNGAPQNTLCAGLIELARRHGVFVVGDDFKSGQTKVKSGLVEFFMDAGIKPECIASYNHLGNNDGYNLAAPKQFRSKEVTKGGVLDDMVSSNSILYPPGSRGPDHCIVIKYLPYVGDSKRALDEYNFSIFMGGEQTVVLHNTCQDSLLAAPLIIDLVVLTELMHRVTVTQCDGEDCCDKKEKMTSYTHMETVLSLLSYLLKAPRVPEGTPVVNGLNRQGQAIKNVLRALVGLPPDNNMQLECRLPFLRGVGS

[1] = read-out: HeLa Cells Alamar Blue
[2] = read-out: HeLa Cells Alamar Blue (% survival)
[3] = Supplementary Table 1, compound 1mM, mean ± SD from Boltzman curve fitting, read-out: Tb Ino1 Tm Shift [˚C]
[4] = read-out: Tb Ino1 Tm Shift [˚C]
[5] = compound 0.5 mM, percentage of controls, mean ± SD (n=3) or SE (n=2)
[6] = Supplementary Table 1, compound 1mM, mean ± SD from Boltzman curve fitting
[7] = read-out: HeLa Cells Alamar Blue, Supplementary Table 1, compound 0.5 mM, percentage of controls, mean ± SD (n=3) or SE (n=2)

Row | SMILES | viability at 500 µM (A549 cells) [%] | viability at 500 µM (HeLa cells; [1]) [%] | ΔTm at 1000 µM (TbINO1; [4]) [°C] | further results
1 | O=C(O)C1NCCS1 (stereo not shown) [compound 103, 1,3-thiazolane-2-carboxylic acid] | 107 | 103 ± 6.4 | – | viability at 500 µM (HeLa cells; [2]): 103 ± 6.4%; ΔTm at 1000 µM (TbINO1; read-out: TbIno1 Tm shift [°C]): 2.63 ± 0.08 °C
2 | NC1Cc2ccccc2C1 [compound 104, indan‐2‐amine] | 123 | 70 ± 18.5 | – | ΔTm at 1000 µM (TbINO1; [3]): 0.89 ± 0.05 °C
3 | COc1ccc(C#N)cn1 [compound 108, 6‐methoxynicotinonitrile] | 125 | 95 ± 10.2 | 0.38 ± 0.07 | –
4 | Cc1ccc(C#N)c(=O)[nH]1 [compound 109, 6‐methyl‐2‐oxo‐1,2‐dihydropyridine‐3‐carbonitrile] | – | – | – | A549 Cells Alamar Blue (A549 cells): 118.7 percentage of controls; HeLa Cells Alamar Blue (HeLa cells; [5]): 97.4 ± 2 percentage of controls; Tb Ino1 Tm Shift [˚C] (TbINO1; [6]): 0.22 ± 0.06 °C
5 | c1ccc2c(c1)CCOC2 [compound 110, 3,4‐dihydro‐1H‐benzo[c]pyran] | 114 | 88.7 ± 19.2 | 0.34 ± 0.06 | –
6 | c1cnc2c(n1)CCCC2 [compound 111, 5,6,7,8‐tetrahydroquinoxaline] | 96.1 | 95.6 ± 0.8 | 0.16 ± 0.06 | –
7 | Oc1noc2ccccc12 [compound 112, benzo[d]isoxazol‐3‐ol] | 76.7 | – | 0.23 ± 0.06 | viability at 500 µM (HeLa cells; [7]): 83 ± 11.2%
8 | Cc1cccc(CN)c1C [compound 113, 2,3‐dimethylbenzylamine] | 83.6 | 89.3 ± 15.9 | 0.12 ± 0.07 | –
9 | N#Cc1c(N)cccc1F [compound 115, 2‐amino‐6‐fluorobenzonitrile] | 77.4 | 71.3 ± 0.6 | 0.17 ± 0.07 | –
10 | Cc1ccc2c(c1)OCO2 [compound 116, 5‐methyl‐1,3‐benzodioxole] | 109 | 82.7 ± 15.6 | – | ΔTm at 1000 µM (TbINO1; [3]): 0.38 ± 0.06 °C
11 | CC(=O)c1nccnc1C [compound 117, 1‐(3‐methylpyrazin‐2‐yl)ethan‐1‐one] | 88.3 | 87.6 ± 11.3 | 0.4 ± 0.06 | –
12 | c1cnc2c(c1)OCCN2 [compound 118, 3,4‐dihydro‐2H‐pyrido[3,2‐b][1,4]oxazine] | 92.3 | 84.1 ± 18 | 0.46 ± 0.06 | –
13 | N#Cc1ccc(O)cc1F [compound 120, 2‐fluoro‐4‐hydroxybenzonitrile] | 72.6 | 18.6 ± 10.7 | 0.41 ± 0.06 | –
14 | Nc1ccc2c(c1)OCO2 [compound 121, 1,3‐benzodioxol‐5‐amine] | 110 | 76.7 ± 16 | 0.72 ± 0.07 | –
15 | NC(=S)c1ccccc1 [compound 123, benzene‐1‐carbothioamide] | 87.9 | 89 ± 10.9 | 0.42 ± 0.06 | –
16 | Oc1ccc2c(c1)OCO2 [compound 124, 1,3-benzodioxol-5-ol] | 53.6 | 39.7 ± 12.5 | – | viability at 500 µM (HeLa cells; [2]): 39.7 ± 12.5%; ΔTm at 1000 µM (TbINO1; compound 1 mM, mean ± SD (n = 3), read-out: TbIno1 Tm shift [°C]): 2.1 ± 0.04 °C
17 | Cc1csc(CC#N)n1 [compound 126, 2-(4-methyl-1,3-thiazol-2-yl)acetonitrile] | 98.4 | 69.7 ± 10.3 | – | viability at 500 µM (HeLa cells; [2]): 69.7 ± 10.3%; ΔTm at 1000 µM (TbINO1; read-out: TbIno1 Tm shift [°C]): 2.1 ± 0.09 °C
18 | Cc1nn(C)c(C)c1CN [compound 128, (1,3,5‐trimethyl‐1H‐pyrazol‐4‐yl)methylamine] | – | – | – | A549 Cells Alamar Blue (A549 cells): 87.7 percentage of controls; HeLa Cells Alamar Blue (HeLa cells; [5]): 80.3 ± 7 percentage of controls; Tb Ino1 Tm Shift [˚C] (TbINO1; [6]): 0.22 ± 0.06 °C
19 | O=C(O)c1ccccc1F [compound 129, 2‐fluorobenzoic acid] | 126 | – | 0.13 ± 0.07 | viability at 500 µM (HeLa cells; [7]): 78.6 ± 14.2%
20 | Cc1cc(C(=O)O)c(C)o1 [compound 130, 2,5‐dimethyl‐3‐furoic acid] | 121 | 84.7 ± 0.7 | 0.62 ± 0.08 | –
21 | O=C(O)CCc1ccco1 [compound 131, 3‐(2‐furyl)propanoic acid] | 98.1 | 69.8 ± 21.4 | 1.22 ± 0.09 | –
22 | COC(=O)c1ccoc1C [compound 132, methyl 2-methyl-3-furoate] | 100 | 71.3 ± 11.3 | – | viability at 500 µM (HeLa cells; [2]): 71.3 ± 11.3%; ΔTm at 1000 µM (TbINO1; read-out: TbIno1 Tm shift [°C]): 1.64 ± 0.09 °C
23 | CC(=O)c1sccc1N [compound 133, 1‐(3‐amino‐2‐thienyl)ethan‐1‐one] | 100 | 83 ± 12.2 | 1.24 ± 0.07 | –
